# Measurements: ChEMBL document CHEMBL5241132, “Design, synthesis and in vitro biological evaluation of 2-aminopyridine derivatives as novel PI3Kδ inhibitors for hematological cancer” (Bioorg Med Chem Lett, 2023)
# Tests used:
# [1] = molecular target: T1, Phosphatidylinositol 4,5-bisphosphate 3-kinase catalytic subunit delta isoform (Homo sapiens, UniProt O00329); assay: Inhibition of PI3Kdelta (unknown origin) by ADP Glo luminescent assay
# T1 sequence (O00329 whole entry): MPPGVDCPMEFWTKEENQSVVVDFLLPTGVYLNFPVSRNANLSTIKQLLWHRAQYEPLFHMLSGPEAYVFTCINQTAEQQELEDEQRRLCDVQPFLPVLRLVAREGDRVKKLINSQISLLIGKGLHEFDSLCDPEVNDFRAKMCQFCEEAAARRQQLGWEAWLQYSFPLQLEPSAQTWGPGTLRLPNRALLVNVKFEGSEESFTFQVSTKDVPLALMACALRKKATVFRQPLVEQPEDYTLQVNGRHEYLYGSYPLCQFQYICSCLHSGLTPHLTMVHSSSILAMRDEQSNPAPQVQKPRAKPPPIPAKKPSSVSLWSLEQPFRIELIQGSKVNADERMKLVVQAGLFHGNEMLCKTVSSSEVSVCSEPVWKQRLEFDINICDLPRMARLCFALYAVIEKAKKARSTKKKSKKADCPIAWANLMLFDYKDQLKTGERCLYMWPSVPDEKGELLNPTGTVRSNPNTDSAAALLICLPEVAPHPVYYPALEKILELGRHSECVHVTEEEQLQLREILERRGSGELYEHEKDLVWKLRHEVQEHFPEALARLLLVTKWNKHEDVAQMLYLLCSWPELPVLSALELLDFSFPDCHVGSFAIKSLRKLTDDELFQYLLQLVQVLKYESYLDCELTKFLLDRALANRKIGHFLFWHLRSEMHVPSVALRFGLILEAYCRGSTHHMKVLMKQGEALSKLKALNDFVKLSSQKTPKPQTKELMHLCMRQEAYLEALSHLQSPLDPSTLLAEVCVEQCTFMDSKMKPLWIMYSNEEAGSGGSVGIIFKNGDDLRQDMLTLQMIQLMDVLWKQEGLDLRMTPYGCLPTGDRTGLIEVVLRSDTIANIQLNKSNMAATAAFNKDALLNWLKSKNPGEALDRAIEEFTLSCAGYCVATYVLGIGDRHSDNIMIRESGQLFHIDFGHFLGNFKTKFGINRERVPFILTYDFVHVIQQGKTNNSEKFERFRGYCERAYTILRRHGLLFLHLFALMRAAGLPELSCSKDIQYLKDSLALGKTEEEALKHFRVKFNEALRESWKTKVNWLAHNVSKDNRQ
# [2] = Antiproliferative activity against human MOLM16 cells assessed as inhibition of cell growth; assay type: functional, cell-based, MOLM-16
# [3] = system: MV4-11; assay: Antiproliferative activity against human MV4-11 cells assessed as inhibition of cell growth; assay type: functional, cell-based
# [4] = system: KG-1; assay: Antiproliferative activity against human KG-1 cells assessed as inhibition of cell growth; assay type: functional, cell-based
# [5] = system: EOL1; assay: Antiproliferative activity against human EOL1 cells assessed as inhibition of cell growth; assay type: functional, cell-based
# [6] = system: HL-60; assay: Antiproliferative activity against human HL-60 cells assessed as inhibition of cell growth; assay type: functional, cell-based
# [7] = molecular target: Phosphatidylinositol 4,5-bisphosphate 3-kinase catalytic subunit alpha isoform (Homo sapiens, UniProt P42336); assay: Inhibition of PI3Kalpha (unknown origin)
# Chain of Phosphatidylinositol 4,5-bisphosphate 3-kinase catalytic subunit alpha isoform (P42336 whole entry, canonical isoform): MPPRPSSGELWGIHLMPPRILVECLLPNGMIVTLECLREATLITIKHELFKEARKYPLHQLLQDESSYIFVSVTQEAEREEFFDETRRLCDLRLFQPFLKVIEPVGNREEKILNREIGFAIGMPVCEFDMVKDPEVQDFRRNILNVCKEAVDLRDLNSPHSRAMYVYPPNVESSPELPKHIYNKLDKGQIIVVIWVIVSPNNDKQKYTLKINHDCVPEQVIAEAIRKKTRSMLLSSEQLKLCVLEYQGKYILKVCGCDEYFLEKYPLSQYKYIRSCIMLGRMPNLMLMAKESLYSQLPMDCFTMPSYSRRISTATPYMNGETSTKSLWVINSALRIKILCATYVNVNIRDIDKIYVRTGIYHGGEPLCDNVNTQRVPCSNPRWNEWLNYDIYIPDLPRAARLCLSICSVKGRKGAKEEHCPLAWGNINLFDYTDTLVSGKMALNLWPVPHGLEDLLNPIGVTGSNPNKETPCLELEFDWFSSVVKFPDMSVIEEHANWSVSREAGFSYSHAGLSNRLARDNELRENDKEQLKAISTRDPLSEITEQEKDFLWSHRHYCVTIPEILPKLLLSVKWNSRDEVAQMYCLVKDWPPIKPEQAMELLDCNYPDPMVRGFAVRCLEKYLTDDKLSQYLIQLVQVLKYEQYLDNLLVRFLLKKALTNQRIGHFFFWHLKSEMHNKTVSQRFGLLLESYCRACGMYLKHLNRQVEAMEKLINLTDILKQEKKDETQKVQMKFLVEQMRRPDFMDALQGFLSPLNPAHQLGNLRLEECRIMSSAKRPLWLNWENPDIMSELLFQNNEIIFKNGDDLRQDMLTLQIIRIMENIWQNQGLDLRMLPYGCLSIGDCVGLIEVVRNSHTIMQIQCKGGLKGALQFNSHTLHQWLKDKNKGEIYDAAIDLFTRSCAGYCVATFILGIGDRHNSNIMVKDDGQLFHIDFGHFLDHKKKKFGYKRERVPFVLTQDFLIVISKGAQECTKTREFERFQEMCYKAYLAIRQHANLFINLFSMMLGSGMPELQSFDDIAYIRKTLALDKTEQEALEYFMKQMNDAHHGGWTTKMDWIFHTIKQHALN
# [8] = molecular target: Phosphatidylinositol 4,5-bisphosphate 3-kinase catalytic subunit beta isoform (Homo sapiens, UniProt P42338); assay: Inhibition of PI3Kbeta (unknown origin)
# Chain of Phosphatidylinositol 4,5-bisphosphate 3-kinase catalytic subunit beta isoform (P42338 whole entry, canonical isoform): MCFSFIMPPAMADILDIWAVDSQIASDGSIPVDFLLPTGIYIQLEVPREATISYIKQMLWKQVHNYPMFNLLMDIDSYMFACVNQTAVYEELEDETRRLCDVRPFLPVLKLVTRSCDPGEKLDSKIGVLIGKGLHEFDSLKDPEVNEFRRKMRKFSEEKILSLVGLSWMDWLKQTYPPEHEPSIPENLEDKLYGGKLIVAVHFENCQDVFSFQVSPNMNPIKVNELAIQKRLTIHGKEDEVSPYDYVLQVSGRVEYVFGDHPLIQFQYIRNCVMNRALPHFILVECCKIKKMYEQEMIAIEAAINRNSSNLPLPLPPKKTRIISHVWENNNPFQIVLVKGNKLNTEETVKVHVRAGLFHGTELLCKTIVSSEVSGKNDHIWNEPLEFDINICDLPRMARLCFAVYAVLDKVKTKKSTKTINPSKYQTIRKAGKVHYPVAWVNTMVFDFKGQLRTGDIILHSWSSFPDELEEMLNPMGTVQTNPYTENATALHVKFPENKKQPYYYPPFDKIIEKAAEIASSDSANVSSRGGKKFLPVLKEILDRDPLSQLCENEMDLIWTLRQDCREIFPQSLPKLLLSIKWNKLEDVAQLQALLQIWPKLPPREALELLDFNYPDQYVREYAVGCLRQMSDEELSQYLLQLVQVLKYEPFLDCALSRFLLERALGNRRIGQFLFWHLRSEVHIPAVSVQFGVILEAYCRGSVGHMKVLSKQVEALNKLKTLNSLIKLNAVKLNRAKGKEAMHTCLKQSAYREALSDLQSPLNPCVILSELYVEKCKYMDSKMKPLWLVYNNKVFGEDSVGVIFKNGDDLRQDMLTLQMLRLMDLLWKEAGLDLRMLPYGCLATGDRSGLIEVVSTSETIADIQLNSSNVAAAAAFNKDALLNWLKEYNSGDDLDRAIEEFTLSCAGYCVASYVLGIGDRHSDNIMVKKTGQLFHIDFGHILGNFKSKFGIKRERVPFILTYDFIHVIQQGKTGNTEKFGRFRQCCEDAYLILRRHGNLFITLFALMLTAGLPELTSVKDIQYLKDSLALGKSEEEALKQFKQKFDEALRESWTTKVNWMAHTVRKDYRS
# [9] = molecular target: Phosphatidylinositol 4,5-bisphosphate 3-kinase catalytic subunit gamma isoform (Homo sapiens, UniProt P48736); assay: Inhibition of PI3Kgamma (unknown origin)
# Chain of Phosphatidylinositol 4,5-bisphosphate 3-kinase catalytic subunit gamma isoform (P48736 whole entry, canonical isoform): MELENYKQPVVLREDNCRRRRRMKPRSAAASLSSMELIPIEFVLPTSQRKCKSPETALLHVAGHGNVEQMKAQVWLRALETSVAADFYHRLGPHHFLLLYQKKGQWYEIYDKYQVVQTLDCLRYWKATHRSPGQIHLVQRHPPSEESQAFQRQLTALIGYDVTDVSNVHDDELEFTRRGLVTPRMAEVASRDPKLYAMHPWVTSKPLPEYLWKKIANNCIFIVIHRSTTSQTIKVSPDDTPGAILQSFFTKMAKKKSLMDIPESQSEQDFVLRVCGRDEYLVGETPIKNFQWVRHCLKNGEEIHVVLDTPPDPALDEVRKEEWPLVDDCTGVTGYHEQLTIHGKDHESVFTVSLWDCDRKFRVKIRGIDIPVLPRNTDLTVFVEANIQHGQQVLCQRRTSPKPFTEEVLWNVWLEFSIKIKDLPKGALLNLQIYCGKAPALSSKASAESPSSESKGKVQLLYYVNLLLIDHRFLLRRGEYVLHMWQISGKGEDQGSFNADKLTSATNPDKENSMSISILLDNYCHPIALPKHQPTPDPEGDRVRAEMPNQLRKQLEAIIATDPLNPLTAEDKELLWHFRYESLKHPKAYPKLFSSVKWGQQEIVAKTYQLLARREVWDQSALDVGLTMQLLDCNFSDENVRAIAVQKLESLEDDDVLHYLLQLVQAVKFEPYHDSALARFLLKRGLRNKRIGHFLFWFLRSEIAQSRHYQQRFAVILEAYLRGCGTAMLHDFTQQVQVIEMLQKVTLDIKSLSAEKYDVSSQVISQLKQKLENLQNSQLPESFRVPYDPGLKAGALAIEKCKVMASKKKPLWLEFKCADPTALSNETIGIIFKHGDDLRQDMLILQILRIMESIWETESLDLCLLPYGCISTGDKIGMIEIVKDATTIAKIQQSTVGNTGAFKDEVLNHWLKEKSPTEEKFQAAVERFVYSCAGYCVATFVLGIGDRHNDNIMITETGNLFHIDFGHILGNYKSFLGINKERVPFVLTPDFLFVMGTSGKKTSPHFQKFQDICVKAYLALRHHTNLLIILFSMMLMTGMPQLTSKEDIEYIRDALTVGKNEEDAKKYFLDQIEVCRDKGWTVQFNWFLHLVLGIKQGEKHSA
# [10] = species on record: Homo sapiens; assay: Selectivity index, ratio of IC50 for inhibition of PI3Kalpha (unknown origin) to IC50 for inhibition of PI3Kdelta (unknown origin) by ADP Glo luminescent assay
# [11] = species on record: Homo sapiens; assay: Selectivity index, ratio of IC50 for inhibition of PI3Kbeta (unknown origin) to IC50 for inhibition of PI3Kdelta (unknown origin) by ADP Glo luminescent assay
# [12] = species on record: Homo sapiens; assay: Selectivity index, ratio of IC50 for inhibition of PI3Kgamma (unknown origin) to IC50 for inhibition of PI3Kdelta (unknown origin) by ADP Glo luminescent assay
# [13] = system: MV4-11; assay: Induction of apoptosis in human MV4-11 cells assessed as viable cells at 1 uM incubated for 48 hrs by Annexin V/PI staining based flow cytometric analysis (reference value: […]); assay type: functional; conditions: read-out: Activity
# [14] = system: MV4-11; assay: Induction of apoptosis in human MV4-11 cells assessed as early apoptotic cells at 1 uM incubated for 48 hrs by Annexin V/PI staining based flow cytometric analysis (reference value: 1.57%); assay type: functional
# [15] = system: MV4-11; assay: Induction of apoptosis in human MV4-11 cells assessed as late apoptotic cells at 1 uM incubated for 48 hrs by Annexin V/PI staining based flow cytometric analysis (reference value: 2.82%); assay type: functional
# [16] = system: MV4-11; assay: Induction of apoptosis in human MV4-11 cells assessed as necrotic cells at 1 uM incubated for 48 hrs by Annexin V/PI staining based flow cytometric analysis (reference value: 0.060%); assay type: functional
# [17] = system: MV4-11; assay: Induction of apoptosis in human MV4-11 cells assessed as viable cells at 3 uM incubated for 48 hrs by Annexin V/PI staining based flow cytometric analysis (reference value: […]); assay type: functional; conditions: read-out: Activity
# [18] = system: MV4-11; assay: Induction of apoptosis in human MV4-11 cells assessed as early apoptotic cells at 3 uM incubated for 48 hrs by Annexin V/PI staining based flow cytometric analysis (reference value: 1.57%); assay type: functional
# [19] = system: MV4-11; assay: Induction of apoptosis in human MV4-11 cells assessed as late apoptotic cells at 3 uM incubated for 48 hrs by Annexin V/PI staining based flow cytometric analysis (reference value: 2.82%); assay type: functional
# [20] = system: MV4-11; assay: Induction of apoptosis in human MV4-11 cells assessed as necrotic cells at 3 uM incubated for 48 hrs by Annexin V/PI staining based flow cytometric analysis (reference value: 0.060%); assay type: functional
# [21] = system: MV4-11; assay: Induction of apoptosis in human MV4-11 cells assessed as viable cells at 5 uM incubated for 48 hrs by Annexin V/PI staining based flow cytometric analysis (reference value: […]); assay type: functional; conditions: read-out: Activity
# [22] = system: MV4-11; assay: Induction of apoptosis in human MV4-11 cells assessed as early apoptotic cells at 5 uM incubated for 48 hrs by Annexin V/PI staining based flow cytometric analysis (reference value: 1.57%); assay type: functional
# [23] = system: MV4-11; assay: Induction of apoptosis in human MV4-11 cells assessed as late apoptotic cells at 5 uM incubated for 48 hrs by Annexin V/PI staining based flow cytometric analysis (reference value: 2.82%); assay type: functional
# [24] = system: MV4-11; assay: Induction of apoptosis in human MV4-11 cells assessed as necrotic cells at 5 uM incubated for 48 hrs by Annexin V/PI staining based flow cytometric analysis (reference value: 0.060%); assay type: functional
# [25] = system: MV4-11; assay: Induction of apoptosis in human MV4-11 cells assessed as viable cells at 10 uM incubated for 48 hrs by Annexin V/PI staining based flow cytometric analysis (reference value: […]); assay type: functional; conditions: read-out: Activity
# [26] = system: MV4-11; assay: Induction of apoptosis in human MV4-11 cells assessed as early apoptotic cells at 10 uM incubated for 48 hrs by Annexin V/PI staining based flow cytometric analysis (reference value: 1.57%); assay type: functional
# [27] = system: MV4-11; assay: Induction of apoptosis in human MV4-11 cells assessed as late apoptotic cells at 10 uM incubated for 48 hrs by Annexin V/PI staining based flow cytometric analysis (reference value: 2.82%); assay type: functional
# [28] = system: MV4-11; assay: Induction of apoptosis in human MV4-11 cells assessed as necrotic cells at 10 uM incubated for 48 hrs by Annexin V/PI staining based flow cytometric analysis (reference value: 0.060%); assay type: functional
# [29] = system: MV4-11; assay: Induction of apoptosis in human MV4-11 cells assessed as total apoptotic cells at 1 to 10 uM incubated for 48 hrs by Annexin V/PI staining based flow cytometric analysis (reference value: 4.39%); assay type: functional; conditions: dose 1-10 µM
# [30] = system: MV4-11; assay: Cell cycle arrest in human MV4-11 cells assessed as accumulation of cells at G2/M phase incubated for 24 hrs by flow cytometric analysis; assay type: functional, cell-based; conditions: dose 1-10 µM
# [31] = molecular target: Serine/threonine-protein kinase AKT (Homo sapiens) (UniProt P31751+Q9Y243+P31749); assay: Inhibition of AKT phosphorylation in human MV4-11 cells incubated for 4 hrs by Western blot analysis; assay type: cell-based; conditions: dose 1-10 µM
# Chain of Serine/threonine-protein kinase AKT (Homo sapiens) (P31749 whole entry, looked up): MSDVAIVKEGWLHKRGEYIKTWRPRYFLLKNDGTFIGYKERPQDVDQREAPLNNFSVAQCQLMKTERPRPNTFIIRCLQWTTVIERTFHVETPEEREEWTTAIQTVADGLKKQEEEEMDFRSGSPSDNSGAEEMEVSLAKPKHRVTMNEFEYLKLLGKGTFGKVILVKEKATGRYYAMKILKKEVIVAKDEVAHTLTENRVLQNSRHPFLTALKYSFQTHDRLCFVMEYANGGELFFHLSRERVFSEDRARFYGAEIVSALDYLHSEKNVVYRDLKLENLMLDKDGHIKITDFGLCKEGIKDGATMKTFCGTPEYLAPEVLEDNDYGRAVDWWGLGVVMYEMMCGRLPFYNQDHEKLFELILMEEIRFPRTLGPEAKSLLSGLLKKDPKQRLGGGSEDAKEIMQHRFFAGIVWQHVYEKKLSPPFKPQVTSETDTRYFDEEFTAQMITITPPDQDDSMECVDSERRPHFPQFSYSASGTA
# Chain of Serine/threonine-protein kinase AKT (Homo sapiens) (P31751 whole entry, looked up): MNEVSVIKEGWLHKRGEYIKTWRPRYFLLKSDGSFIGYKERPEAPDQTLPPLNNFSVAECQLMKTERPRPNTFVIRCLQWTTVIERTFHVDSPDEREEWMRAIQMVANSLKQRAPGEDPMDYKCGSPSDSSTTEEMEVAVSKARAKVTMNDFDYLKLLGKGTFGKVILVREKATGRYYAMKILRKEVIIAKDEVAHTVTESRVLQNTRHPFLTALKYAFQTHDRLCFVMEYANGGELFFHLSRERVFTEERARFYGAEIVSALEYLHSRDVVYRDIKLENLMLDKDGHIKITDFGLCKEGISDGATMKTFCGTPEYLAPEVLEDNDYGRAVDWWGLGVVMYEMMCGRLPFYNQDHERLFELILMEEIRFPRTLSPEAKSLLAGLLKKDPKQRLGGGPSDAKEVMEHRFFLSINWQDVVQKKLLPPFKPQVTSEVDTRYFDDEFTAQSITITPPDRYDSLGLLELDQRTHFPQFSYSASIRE
# Chain of Serine/threonine-protein kinase AKT (Homo sapiens) (Q9Y243 whole entry, looked up): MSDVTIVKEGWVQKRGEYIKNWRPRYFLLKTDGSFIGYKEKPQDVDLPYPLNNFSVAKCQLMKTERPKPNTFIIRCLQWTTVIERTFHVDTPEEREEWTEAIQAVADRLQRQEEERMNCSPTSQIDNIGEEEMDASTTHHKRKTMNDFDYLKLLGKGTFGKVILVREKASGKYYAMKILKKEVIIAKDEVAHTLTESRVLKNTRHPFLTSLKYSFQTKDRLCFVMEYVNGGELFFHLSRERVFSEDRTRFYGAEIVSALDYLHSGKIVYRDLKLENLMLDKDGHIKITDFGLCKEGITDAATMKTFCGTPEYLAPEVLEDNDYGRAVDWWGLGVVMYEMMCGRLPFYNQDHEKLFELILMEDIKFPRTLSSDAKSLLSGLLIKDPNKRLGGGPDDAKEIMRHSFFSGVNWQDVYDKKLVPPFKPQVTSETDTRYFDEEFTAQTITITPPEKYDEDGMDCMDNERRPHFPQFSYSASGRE
smiles,measurement,setting,value
Nc1ccc(-c2cnc(Cl)c(NS(=O)(=O)c3ccc(F)cc3)c2)cn1,IC50,[1],98 nM
Oc1cccc(-c2nc(N3CCOCC3)c3oc4ncccc4c3n2)c1 [PI-103],IC50,[2],58 nM
same,IC50,[3],0.054 µM
same,IC50,[4],0.088 µM
same,IC50,[5],1.6 µM
same,IC50,[6],89 nM
N#Cc1ncc(-c2ccc(N)nc2)cc1N,IC50,[1],33500 nM
CN(c1cc(-c2ccc(N)nc2)cnc1Cl)S(=O)(=O)c1ccccc1,IC50,[1],11300 nM
Cc1ncc(-c2ccc(N)nc2)cc1N,IC50,[1],> 50000 nM
CCNC(=O)Nc1ccc(-c2cnc(Cl)c(NS(=O)(=O)c3ccccc3)c2)cn1,IC50,[1],104 nM
same,IC50,[7],412 nM
same,IC50,[8],235 nM
same,IC50,[9],180 nM
COCCNC(=O)Nc1ccc(-c2cnc(Cl)c(NS(=O)(=O)c3ccccc3)c2)cn1,IC50,[1],30 nM
same,IC50,[7],288 nM
same,IC50,[8],295 nM
same,IC50,[9],243 nM
same,IC50,[2],2600 nM
same,IC50,[3],3.7 µM
same,IC50,[4],18.9 µM
same,IC50,[5],15.9 µM
same,IC50,[6],8700 nM
same,Ratio IC50,[10],8
same,Ratio IC50,[11],8
same,Ratio IC50,[12],8
same,viability at 1 µM,[13],96%
same,Activity,[14],1.2%
same,Activity,[15],2.65%
same,Activity,[16],0.1%
same,viability at 3 µM,[17],94%
same,Activity,[18],1.47%
same,Activity,[19],4.18%
same,Activity,[20],0.335%
same,viability at 5 µM,[21],85.5%
same,Activity,[22],1.92%
same,Activity,[23],10.9%
same,Activity,[24],1.69%
same,viability at 10 µM,[25],57.4%
same,Activity,[26],3.21%
same,Activity,[27],28.1%
same,Activity,[28],11.3%
same,Activity,[29],3.85%
same,Activity,[30],Dose-Dependent Effect
same,inhibition,[31],Dose-Dependent Effect
Nc1ccc(-c2cnc(Cl)c(C(F)(F)F)c2)cn1,IC50,[1],46600 nM
CCOc1ncc(-c2ccc(N)nc2)cc1N,IC50,[1],> 50000 nM
CC[C@H](Nc1ncnc2[nH]cnc12)c1nc2cccc(F)c2c(=O)n1-c1ccccc1 [IDELALISIB],IC50,[2],13300 nM
same,IC50,[3],4.3 µM
same,IC50,[4],15.2 µM
same,IC50,[5],> 50 µM
same,IC50,[6],480 nM
Nc1ccc(-c2cnc(Cl)c(N)c2)cn1,IC50,[1],32500 nM
CC(=O)Nc1ccc(-c2cnc(Cl)c(NS(=O)(=O)c3ccccc3)c2)cn1,IC50,[1],48 nM
Nc1ccc(-c2cnc(Cl)c(NS(=O)(=O)c3ccccc3)c2)cn1,IC50,[1],52 nM
Nc1ccc(-c2cnc(Cl)c(F)c2)cn1,IC50,[1],> 50000 nM
Nc1cncc(-c2ccc(N)nc2)c1,IC50,[1],> 50000 nM
Nc1ccc(-c2cnc(F)c(N)c2)cn1,IC50,[1],> 50000 nM
N#Cc1cc(-c2ccc(N)nc2)cnc1Cl,IC50,[1],> 50000 nM
COc1ncc(-c2ccc(N)nc2)cc1N,IC50,[1],> 50000 nM
Nc1ccc(-c2ccc(Cl)nc2)cn1,IC50,[1],47500 nM
Nc1ccc(-c2cnc(N)c(N)c2)cn1,IC50,[1],> 50000 nM
CCCC(=O)Nc1ccc(-c2cnc(Cl)c(NS(=O)(=O)c3ccccc3)c2)cn1,IC50,[1],46 nM
CCC(=O)Nc1ccc(-c2cnc(Cl)c(NS(=O)(=O)c3ccccc3)c2)cn1,IC50,[1],49 nM
CC(C)(C)c1ccc(S(=O)(=O)Nc2cc(-c3ccc(N)nc3)cnc2Cl)cc1,IC50,[1],31 nM
Cc1ccc(S(=O)(=O)Nc2cc(-c3ccc(N)nc3)cnc2Cl)cc1,IC50,[1],41 nM
Nc1ccc(-c2cnc(Cl)c(NS(=O)(=O)c3ccc(F)cc3F)c2)cn1,IC50,[1],67 nM
